Reference: patent US20260248924A1, “MITOCHONDRIA-TARGETED AGENTS FOR DISEASE PREVENTION AND TREATMENT” (THE METHODIST HOSPITAL, priority 2023, published 2026)
Entries after “also recorded” stand apart in the source; their conditions may differ.

Columns and labels:
[1] = test system: lung adenocarcinoma (LUAD) cell lines (H2030-BrM3, LKR-13); test: Cellular proliferation assay (IncuCyte cell confluence), PEITC vs Mito-PEITC; format: cell-based; settings: Homo sapiens, real-time cell confluence, both LUAD cell lines tested, read-out: IC50, inhibition of proliferation
[2] = test system: B(a)P-induced lung tumors; test: B(a)P-induced lung tumorigenesis, post-initiation model; format: in vivo, A/J mice; settings: 100 μmol/kg, 5 days/week, 20 weeks
VC-induced lung tumors = test: VC-induced lung tumorigenesis study; format: in vivo, A/J mice; settings: 100 μmol/kg, oral gavage 5 days/week for 20 weeks
Protocol: Six-week-old female A/J mice were injected with VC (single i.p. dose, 16 mg/kg). […] Treatments were administered by oral gavage five times per week. After 18 weeks of treatment, the mice were euthanized. […] The rest of lungs were evaluated under a dissecting microscope to obtain the surface tumor count and individual tumor diameter. Tumor volume was calculated based on the formula V=4πr(3)/3. Tumor load (the total tumor volume in each mouse) was calculated from the sum of all tumors.

H2030-BrM3 cells [3] = test: Orthotopic model of lung adenocarcinoma; format: in vivo, nude mice; settings: 4 μmol/kg, oral gavage 5 days/week for 3 weeks
Protocol: An orthotopic model of lung adenocarcinoma cells (H2030-BrM3 cells) in athymic nude mice was used. Nude mice (5 weeks old) were anesthetized with isoflurane and placed in the right lateral decubitus position. A total of 1×10^6 H2030-BrM3 cells in […] of growth factor reduced Matrigel in 50 μL of RPMI1640 medium were injected into the left lung through the left rib cage. […] Tumor growth and metastases were monitored over time by bioluminescence (after injection of D-luciferin, 150 μg/g) using Lumina IVIS 100 imager (Perkin Elmer, Waltham, MA). Mice were euthanized on day 28.
A study using an orthotopic model of lung adenocarcinoma in nude mice was conducted. H2030-BrM3 cells were injected into the lung. […] PEITC was not effective, as expected, because the applied dose (4 μmol/kg) is below the levels typically used in xenograft studies (Zhang, Q., et al., Mol Carcinog, 2020. 59(6): p. 590-603).

H2030-BrM3 cells [4] = test: Lung cancer brain metastasis model (left ventricle injection); format: in vivo, NOD/SCID mice; settings: PEITC at 25-fold higher dose (printed 100 mol/kg), oral gavage
Protocol: Mice were imaged for luciferase expression as a marker of tumor growth, using an IVIS 100 imaging system, over five weeks after cell injection. Regions of interest were defined manually, and LivingImage and Igor software was used to determine total photon flux.
For the brain metastasis studies, female NOD/SCID mice (age 5 weeks) were used. H2030-BrM3 cells (2×10^5) were suspended in PBS (0.1 mL) and injected into the left ventricle under ultrasound guidance (ECHO 707, GE, Milwaukee, WI). […] Mice were treated by oral gavage 5 days per week and metastases were monitored periodically by bioluminescence. Mice were euthanized at day 28 after the arterial injection of tumor cells.

[5] = test system: lung tumorigenesis induced by benzo(a)pyrene; settings: in vivo; cited from earlier work
[6] = rat, in vivo; cited from earlier work
[7] = human, in vivo; cited from earlier work
[8] = in vivo; cited from earlier work

S=C=NCCc1ccccc1 [PEITC, phenethyl isothiocyanate]
IC50 [1]: 12 µM
B(a)P-induced lung tumor development [2]: ineffective
VC-induced lung tumor development (VC-induced lung tumors): ineffective
effect on orthotopic lung tumor growth (H2030-BrM3 cells [3]): not effective
effect on lung cancer brain metastasis (H2030-BrM3 cells [4]): ineffective; also recorded: does not inhibit brain metastasis
efficacy against lung tumorigenesis induced by benzo(a)pyrene [5]: not effective
toxicity for female rats [6]: extremely low toxicity
safety in clinical trial [7]: safe
blood-brain barrier passage [8]: crosses the blood-brain barrier
plasma protein binding [8]: high
